Laboratory results from US9771332B2, “2-thiopyrimidinones” (Pfizer Inc., priority 2015, dated 2017).
Where a name gives a salt, the structure may show the parent alone. Read-outs that look alike come from different tables or passages of the source.

Assays:
MPO = molecular target: T1, MPO (Homo sapiens, UniProt P05164); test: Human Whole Blood Assay for Irreversible Inhibition of MPO; type: cell-based; settings: LPS-stimulated human whole blood, 4 hour incubation; irreversible inhibition of active MPO
T1 construct: endogenous in cells; host or cells: human whole blood leukocytes, LPS-stimulated
T1 sequence (P05164 279-745 limits assumed): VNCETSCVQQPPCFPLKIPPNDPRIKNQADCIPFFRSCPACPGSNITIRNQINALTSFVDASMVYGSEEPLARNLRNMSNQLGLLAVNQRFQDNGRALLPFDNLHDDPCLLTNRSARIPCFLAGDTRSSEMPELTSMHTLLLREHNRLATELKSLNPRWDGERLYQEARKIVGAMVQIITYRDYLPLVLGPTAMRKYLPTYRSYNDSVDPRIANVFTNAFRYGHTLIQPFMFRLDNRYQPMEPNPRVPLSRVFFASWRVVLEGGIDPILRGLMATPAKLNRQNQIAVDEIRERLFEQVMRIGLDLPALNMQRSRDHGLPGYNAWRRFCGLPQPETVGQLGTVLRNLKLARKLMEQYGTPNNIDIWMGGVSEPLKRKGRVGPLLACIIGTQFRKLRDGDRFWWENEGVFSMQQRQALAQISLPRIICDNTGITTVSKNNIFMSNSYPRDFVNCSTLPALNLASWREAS
T1 sequence (P05164 165-273 limits assumed): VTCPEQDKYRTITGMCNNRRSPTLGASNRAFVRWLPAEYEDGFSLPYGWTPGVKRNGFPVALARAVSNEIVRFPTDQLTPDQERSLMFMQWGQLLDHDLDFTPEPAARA
Protocol: To measure the inhibition of MPO activity in a biological system in the present invention, bioassays were performed with human whole blood that was collected from medication-free, human volunteers in heparin treated tubes (APP Pharmaceuticals, LLC, cat # NDC#63323-047-10, #4710). Blood was aliquoted and treated with different concentrations of the MPO inhibitor or vehicle control and co-treated with or without bacterial lipopolysaccharide (LPS, InVivogen) to stimulate blood leukocytes to simultaneously generate H2O2 (a required MPO substrate) and the release of MPO. After a 4 hour incubation at room temperature the plasma fraction was collected following a 2000×g centrifugation at 4° C.
The plasma fraction was divided in two for analysis of total MPO and active MPO. The total MPO content was determined using a standard sandwich ELISA (capture and detection antibodies: Cell Sciences, Cat# HP9048, and Cell Sciences, Cat# HM2164, clone 266-6K1) and calculated relative to a standard curve of purified MPO (myeloperoxidase, Calbiochem, cat#475911) that was prepared by dilution in the autologous donor plasma. The MPO activity is determined by capturing the total MPO from plasma using the capture step as described for the above ELISA method. […] The MPO activity of the captured material was compared to that obtained with a standard curve of purified MPO (myeloperoxidase, Calbiochem, cat#475911) that was prepared in autologous donor plasma. The percent of ‘active’ myeloperoxidase for each sample was calculated from the ratio of the active myeloperoxidase in the Amplex Red assay and the total myeloperoxidase from the ELISA for each sample. A dose response curve of the compound concentration versus MPO activity was then plotted to determine the IC50 value.

hERG potassium channel = molecular target: T2, hERG potassium channel (Homo sapiens, UniProt Q12809); test: hERG Assay (Qpatch HT automated patch clamp, hERG-transfected CHO cells); type: cell-based; settings: for Therapeutic ratio hERG IC50/MPO IC50: hERG IC50 divided by MPO IC50 in human whole blood; for inhibition at 5 min, 100 µM: at 100 uM; for inhibition at 5 min, 300 µM: at 300 uM
T2 construct: host or cells: CHO cells (PrecisiON hERG-CHO Recombinant Cell Line)
T2 sequence (Q12809 whole entry): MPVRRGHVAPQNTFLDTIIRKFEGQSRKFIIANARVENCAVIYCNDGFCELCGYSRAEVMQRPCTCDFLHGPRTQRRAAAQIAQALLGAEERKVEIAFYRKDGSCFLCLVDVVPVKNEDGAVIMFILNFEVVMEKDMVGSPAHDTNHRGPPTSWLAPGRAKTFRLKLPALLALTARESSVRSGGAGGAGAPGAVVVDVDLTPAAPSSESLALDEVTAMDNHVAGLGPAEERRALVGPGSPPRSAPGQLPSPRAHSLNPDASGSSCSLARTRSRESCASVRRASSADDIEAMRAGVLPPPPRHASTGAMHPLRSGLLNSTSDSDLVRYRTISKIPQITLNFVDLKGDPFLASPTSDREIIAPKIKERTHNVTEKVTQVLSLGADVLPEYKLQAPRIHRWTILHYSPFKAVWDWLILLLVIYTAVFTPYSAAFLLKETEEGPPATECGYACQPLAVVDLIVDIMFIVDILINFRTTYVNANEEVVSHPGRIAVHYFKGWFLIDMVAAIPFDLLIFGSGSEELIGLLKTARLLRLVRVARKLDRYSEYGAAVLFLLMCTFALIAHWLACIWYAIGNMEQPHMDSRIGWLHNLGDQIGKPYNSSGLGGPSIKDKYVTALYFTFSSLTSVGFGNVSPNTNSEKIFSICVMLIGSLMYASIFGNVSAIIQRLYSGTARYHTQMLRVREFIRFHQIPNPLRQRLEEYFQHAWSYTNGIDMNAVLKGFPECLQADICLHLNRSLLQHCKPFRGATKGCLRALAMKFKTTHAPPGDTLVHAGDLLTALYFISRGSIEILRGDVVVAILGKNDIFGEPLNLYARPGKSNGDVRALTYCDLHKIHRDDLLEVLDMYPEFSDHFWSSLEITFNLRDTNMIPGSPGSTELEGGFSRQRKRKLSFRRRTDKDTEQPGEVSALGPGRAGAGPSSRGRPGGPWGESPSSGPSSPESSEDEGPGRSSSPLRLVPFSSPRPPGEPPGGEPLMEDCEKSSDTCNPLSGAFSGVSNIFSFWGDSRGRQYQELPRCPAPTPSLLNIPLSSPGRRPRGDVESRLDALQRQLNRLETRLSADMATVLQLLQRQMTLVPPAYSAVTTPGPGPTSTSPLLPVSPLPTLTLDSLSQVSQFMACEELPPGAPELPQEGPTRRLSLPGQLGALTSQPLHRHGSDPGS
Protocol: All testing was carried out in CHO cells transfected with the hERG gene purchased from Millipore (PrecisiON hERG-CHO Recombinant Cell Line CYL3038). The cell line was grown in DMEM/F-12, GlutaMAX™ with 10% fetal bovine serum, 1% Penicillin-Streptomycin, 1% Geneticin and 1% of 1M HEPES buffer solution, and maintained at approximately 37° C. in a humidified atmosphere containing 5% carbon dioxide. The cells were passaged every 3-5 days based on confluency. On the day of the experiment, 50%-80% confluent cells were harvested from a 175 cm^2 culture flask using Detachin™. After 10 minutes of exposure to Detachin™ at 37° C., the cells were centrifuged for 1 minute at 1000 RPM. The supernatant was removed and the cell pellet was reconstituted in 5-8 mL of serum free media with 2.5% of 1M HEPES, placed on the Qstirrer™, and allowed to recover. After a ˜30 minute recovery period, experiments were initiated.
hERG current was elicited and recorded using the automated Qpatch HT™ system (as described in Kutchinsky J, Friis S, Asmild M, et al. Characterization of potassium channel modulators with QPatch automated patch-clamp technology: system characteristics and performance. Assay Drug Dev Technol 2003; 1(5):685-93). The suspended cells in the Qstirrer™ were transferred to 48 individual recording chambers on a Qplate 48™ containing extracellular recording saline composed of (in mM): 138 NaCl, 5.3 KCl, 1.3 CaCl2, 0.5 MgCl2, 5.6 Glucose, 5 HEPES, 0.4 MgSO4, 0.44 KH2PO4, 4.2 NaHCO3, 0.34 Na2HPO4, and adjusted to pH 7.4±0.1 with NaOH. The intracellular recording saline was composed of (in mM): 130 KCl, 1 MgCl2, 10 HEPES, 5 Mg-ATP, and 5 EGTA, and adjusted to pH 7.2±0.1 with KOH. Membrane currents were recorded at room temperature.
hERG current was elicited from a holding potential of −80 mV with a voltage step to +30 mV for 1 second, followed by a ramp back to −80 mV at 0.55 mV/ms. Test pulses were delivered at a frequency of 0.25 Hz. Up to 4 different concentrations were studied on each cell, each exposure lasting 5 minutes or until steady-state effects were observed. In a separate set of experiments, a full concentration-response relationship and an IC50 was determined for a positive control, cisapride, (Jules C. Hancox, Mark J. McPate, Aziza El Harchi, Yi hong Zhang, The hERG potassium channel and hERG screening for drug-induced torsades de pointes, Pharmacology & Therapeutics, Volume 119, Issue 2, August 2008, Pages 118-132).
Using Sophion Qpatch Assay Software, the amplitude of the peak outward hERG current upon repolarizing ramp was measured. Current amplitude was determined by taking the average of the last 5 current peaks under each treatment condition. Percent inhibition was determined by taking the ratio of the current measured at steady state in the presence of test article (ITest article) versus the control current (Icontrol), and expressed as: % inhibition=100−(ITest article/IControl)*100. When possible, a concentration-response curve was plotted and the data were fitted using Qpatch software to determine an IC50.

[1] = fit to a concentration-response curve, read-out: hERG IC50 (determined by curve fitting)
[2] = extrapolated from single-point % inhibition, read-out: hERG IC50 (extrapolated from % activity shown)

Compound | IC50 (MPO) | IC50 (hERG potassium channel; [1]) | Therapeutic ratio hERG IC50/MPO IC50 (hERG potassium channel) | inhibition at 5 min, 30 µM (hERG potassium channel; human, pH 7.4, at 30 uM) | inhibition at 5 min, 100 µM (hERG potassium channel; human, pH 7.4) | IC50 (hERG potassium channel; [2]) | inhibition at 5 min, 300 µM (hERG potassium channel; human, pH 7.4) | hERG IC50/MPO IC50 safety ratio over compound C (hERG potassium channel; 5515/41) | hERG IC50/MPO IC50 safety ratio over compound D (hERG potassium channel; 5515/162) | hERG IC50/MPO IC50 safety ratio over compound E (hERG potassium channel; 5515/260) | hERG IC50/MPO IC50 safety ratio over compound F (hERG potassium channel; 5515/900) | hERG IC50/MPO IC50 safety ratio over compound G (hERG potassium channel; 5515/1500)
COc1ccc(Cl)cc1-c1cc(=O)[nH]c(=S)n1CCN [C] | 0.8 µM | 33 µM | 41 | 49% | 75% | – | – | – | – | – | – | –
COc1ccc(-c2cc(=O)[nH]c(=S)n2CC(=O)NCCN)c(OC)c1 [G, N-(2-aminoethyl)-2-[6-(2,4-dimethoxyphenyl)-4-oxo-2-thioxo-3,4-dihydropyrimidin-1(2H)-yl]acetamide] | 0.6 µM | – | 1500 | – | – | 900 µM | 25% | – | – | – | – | –
COc1ccc(Cl)cc1-c1cc(=O)[nH]c(=S)n1CC(N)=O [F, 2-(6-(5-chloro-2-methoxyphenyl)-4-oxo-2-thioxo-3,4-dihydropyrimidin-1(2H)-yl)acetamide] | – | – | – | – | – | 1700 µM | 15% | – | – | – | – | –
COc1ccc(C)cc1-c1cc(=O)[nH]c(=S)n1CCN [D] | 0.99 µM | 160 µM | 162 | – | 40% | – | 63% | – | – | – | – | –

More lines, main results first:

IC50 (MPO) | Compound | IC50 (hERG potassium channel; [1]) | Therapeutic ratio hERG IC50/MPO IC50 (hERG potassium channel) | inhibition at 5 min, 30 µM (hERG potassium channel; human, pH 7.4, at 30 uM) | inhibition at 5 min, 100 µM (hERG potassium channel; human, pH 7.4) | IC50 (hERG potassium channel; [2]) | inhibition at 5 min, 300 µM (hERG potassium channel; human, pH 7.4) | hERG IC50/MPO IC50 safety ratio over compound C (hERG potassium channel; 5515/41) | hERG IC50/MPO IC50 safety ratio over compound D (hERG potassium channel; 5515/162) | hERG IC50/MPO IC50 safety ratio over compound E (hERG potassium channel; 5515/260) | hERG IC50/MPO IC50 safety ratio over compound F (hERG potassium channel; 5515/900) | hERG IC50/MPO IC50 safety ratio over compound G (hERG potassium channel; 5515/1500)
1.3 µM | NCCn1c(-c2cc(Cl)ccc2OCCO)cc(=O)[nH]c1=S [Compound E] | – | 260 | – | 23% | 335 µM | – | – | – | – | – | –
0.55 µM | Cc1ccc(OCCO)c(-c2cc(=O)[nH]c(=S)n2CCN)c1 [Compound A, 1-(2-Aminoethyl)-6-(2-(2-hydroxyethoxy)-5-methylphenyl)-2-thioxo-2,3-dihydropyrimidin-4(1H)-one hydrochloride] | – | 5515 | – | – | 3030 µM | 9% | 135 times | 34 times | 21 times | 6.1 times | 3.7 times
2.5 µM | COc1ccc(C)cc1-c1cc(=O)[nH]c(=S)n1CC(N)=O [Compound B] | – | – | – | – | – | – | – | – | – | – | –
